We go through one substance from patent US20030135033A1, “Compounds and methods for the identification and/ or validation of a target” (priority 2002, published 2003).

The test system of data set [1] is PTEN mRNA. Nature of the data set: Immunoblot of PTEN and phosphorylated Akt after GeneBloc transfection of 3Y1 cells. The data set is classed as cell-based, rat. The procedure:
A total of three different antisense oligonucleotides, also referred to as geneblocs herein, namely PTEN 48, PTEN 57 and PTEN 53 were transfected into rat-embryo fibroblast cell line together with a negative control comprising a randomised sequence (also referred to herein as GBC). More particularly, 3Y1 cells on 10 cm plates were transfected with 15 or 30 nM of the three different PTEN specific Geneblocs 48, 57 and 53 and with GBC. After 48 h cells were harvested and the cell extracts were analyzed by immunoblotting for the relative protein amounts of p110, Akt, phosphorylated Akt (P*-Akt) and PTEN as indicated on the right. […] The concentration dependency of the antisense oligonucleotides can be particularly well seen from the use of PTEN 57 and PTEN 53 and was confirmed by further experiments. The most powerful antisense oligonucleotide among said three antisense oligonucleotides was PTEN 53. P110 was used as a marker to reflect the loading of each of the lanes.
In the corresponding experiment PTEN 53 was used as the antisense oligonucleotide and a total of four mismatches were introduced to the particular sequence with the total length of PTEN 57 being 23 nucleotides. Again, GBC was used as a negative control. The sequence of the mismatch oligonucleotide is BucucauuTsTssCssTspl sTssTssGssTssGsscucacgaB (SEQ ID No. 33) with B representing an inverted abasic nucleotide. In addition an antisense oligonucleotide was prepared specific for the mRNA of luciferase inhibiting luciferase expression in cells engineered to express the recombinant firefly gene. The respective lane on the Western blot is designated as “luc”. The same experiment was carried out using either 30 nM or 60 nM antisense oligonucleotide. As mentioned in connection with FIG. 3, P110 serves as an internal loading standard.
Transfections were carried out in 96 well or 10-cm plates (at 30% to 50% confluency) by using various cationic lipids such as Oligofectamine, Lipofectamine (Life Technologies), NC388 (Ribozyme Pharmaceuticals, Inc., Boulder, CO), or FuGene 6 (Roche) according to the manufacturer's instructions. […] molecules, including third generation antisense molecules, were transfected by adding pre-formed 5× concentrated complex of GeneBloc and lipid in serum-free medium to cells in complete medium. The total transfection volume was 100 μl for cells plated in 96 wells and 10 ml for cells in 10 cm plates. The final lipid concentration was 0.8 to 1.2 μg/ml depending on cell density; the GeneBloc concentration is indicated in each experiment.
Cells were washed twice with cold phosphate-buffered saline and lysed at 4° C. in lysis buffer containing 20 mM Tris (pH 7.5), 137 mM NaCl, 15% (vol/vol) glycerol, 1% (vol/vol) Nonidet P-40 (NP-40), 2 mM phenylmethylsulfonyl fluoride, […], 20 mM leupeptin, 2 mM benzamidine, 1 mM sodium vanadate, 25 mM […]-glycerol phosphate, 50 mM NaF and 10 mM NaPPi. Lysates were cleared by centrifugation at 14,000× g for 5 minutes and aliquots of the lysates were analyzed for protein expression by Western-blotting: Samples were separated by SDS-PAGE and transferred to nitrocellulose-filters (Schleicher & Schuell). Filters were blocked in TBST buffer (10 mM Tris-HCl (pH 7.5), 150 mM NaCl, 0.05% (vol/vol) Tween 20, 0.5% (wt/vol) sodium azide) containing 5% (wt/vol) dried milk. The respective antibodies were added in TBST at appropriate dilutions. Bound antibody was detected using anti-mouse- or anti-rabbit-conjugated horse radish peroxidase (Transduction Laboratories, BD) in TBST, washed, and developed using the SuperSignal West Dura (Pierce) or ECL (Amersham) chemoluminescence substrates. […]
To further ensure that Akt phosphorylation is not caused by an artefact or by stress imposed through the transfection conditions we tested various negative control third generation antisense molecules (negative control GeneBlocs). […]
For orientation: Immunoblotting shows a protein as a band on a membrane.

The subject of data set [2] is 3Y1 cells. Nature of the data set: Rate of DNA synthesis by incorporation of bromodeoxyuridine. It counts as cell-based, rat. As to conditions: synchronized in low serum, released by serum stimulation. The procedure:
3Y1 cells plated in 96-wells at 1600 cells per well were transfected in triplicate samples with GeneBloc molecules. After ca. 30 h the cells were starved in DMEM containing 10 mM HEPES (pH 7.2) under continuous GeneBloc treatment. The cells were released into the cell cycle at various time points by addition of 10% serum. Control cells were incubated with 5 μg/ml aphidicolin for 18 h. After pulse-labeling with 10 μM 5-bromo-2′-deoxyururidine (BrdU) for the last 2 h the cells were fixed and permeabilized. The relative amount of BrdU incorporated into each sample was determined by using the Cell Proliferation ELISA, BrdU (colorimetric) (Roche) according to the manufacturer's instructions. Incorporated BrdU was detected by measuring the absorbance at 405 nm and 490 nM using the Spectra Max 190 (Molecular Devices).
3Y1 cells were used, because these untransformed rat fibroblasts are very sensitive to transfection conditons and are prone to arrest or even undergo apoptosis. Subconfluent 3Y1 cells in 96 wells were treated with PTEN GeneBloc 48, GeneBloc 53 or GBC as a control. On day 2 the cells were synchronized in low serum. During days 3 and 4 the cells were released into the cell cycle by serum stimulation at various time points. BrdU was added for the last 2 h of incubation. Untreated cells and cells that were treated with Aphidicolin for 24 h were used as controls. RNA knock down was analyzed in parallel samples. The rate of synthesis was determined via the amount of incorporated BrdU.

The mark [3] stands for this setting: 30 nM or 60 nM, PTEN 53 versus negative control GeneBlocs.
The mark [4] stands for this setting: 3Y1 cells, 15 or 30 nM GeneBloc, 48 h.
Where [5] appears, read: 3Y1 cells, 15 or 30 nM GeneBloc, 48 h, listed as PTEN GeneBloc 53.

Take “ucuccuuTTGTTTCTGcuaacga (UCUCCUUTTGTTTCTGCUAACGA; chemistry not fully specified) [PTEN 53, third generation antisense oligonucleotide (GeneBloc) against PTEN]”: the “PTEN protein / PTEN mRNA degradation (immunoblot)” value in data set [1] (setting [3]) is “inhibited PTEN expression”. The “phosphorylated Akt (P*-Akt) (immunoblot)” value in data set [1] (setting [3]) was “resulted in the phosphorylation of Akt”; in data set [1] (30 nM or 60 nM, PTEN 53 versus negative control GeneBlocs, listed as PTEN GeneBloc 53), “caused an increase in Akt phosphorylation”; in data set [1] (setting [4]), “phosphorylated Akt could be detected”; in data set [1] (setting [5]) it was “strongest increase in Akt phosphorylation”. Further, the results for the “PTEN protein (immunoblot)” value in data set [1] (setting [4]) and in data set [1] (setting [5]) were “no longer present” and “most efficient knock down in PTEN expression”, respectively. The “ranking among the three PTEN antisense oligonucleotides” value in data set [1] (3Y1 cells, 15 or 30 nM, 48 h) was “most powerful”. Also, in data set [2], the “rate of DNA synthesis (incorporated BrdU)” value is recorded as “strong increase in DNA synthesis after 18 h”.
